Reference: ChEMBL document CHEMBL5500338, “Design, synthesis, and biological evaluation of piperazine derivatives as pan-PPARs agonists for the treatment of liver fibrosis” (Eur J Med Chem, 2024)

Assays:
Type in all cases: cell-based
[1] = molecular target: T1, Peroxisome proliferator-activated receptor gamma (Homo sapiens, UniProt P37231); assay: Agonist activity at human PPARgamma transfected in African green monkey COS-7 cells co-transfected with pGL4.35 and pBIND reporter gene plasmid assessed as receptor transactivation incubated for 16 hrs by luciferase reporter gene assay
T1 sequence (P37231 whole entry): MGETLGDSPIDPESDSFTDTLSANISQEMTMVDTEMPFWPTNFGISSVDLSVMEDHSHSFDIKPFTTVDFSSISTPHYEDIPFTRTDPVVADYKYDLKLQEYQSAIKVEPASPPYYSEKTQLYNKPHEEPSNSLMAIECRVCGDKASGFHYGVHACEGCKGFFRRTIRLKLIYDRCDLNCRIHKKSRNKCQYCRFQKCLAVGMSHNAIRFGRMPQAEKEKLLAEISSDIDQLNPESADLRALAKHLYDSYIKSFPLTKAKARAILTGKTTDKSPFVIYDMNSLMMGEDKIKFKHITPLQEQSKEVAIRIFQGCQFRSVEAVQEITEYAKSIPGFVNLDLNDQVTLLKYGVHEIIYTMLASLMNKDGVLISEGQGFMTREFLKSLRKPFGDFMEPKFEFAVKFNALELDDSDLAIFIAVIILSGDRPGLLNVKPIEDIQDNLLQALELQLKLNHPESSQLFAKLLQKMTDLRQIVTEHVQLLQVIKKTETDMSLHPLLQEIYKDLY

[2] = molecular target: T2, Peroxisome proliferator-activated receptor delta (Homo sapiens, UniProt Q03181); assay: Agonist activity at human PPARdelta transfected in African green monkey COS-7 cells co-transfected with pGL4.35 and pBIND reporter gene plasmid assessed as receptor transactivation incubated for 16 hrs by luciferase reporter gene assay
T2 sequence (Q03181 whole entry): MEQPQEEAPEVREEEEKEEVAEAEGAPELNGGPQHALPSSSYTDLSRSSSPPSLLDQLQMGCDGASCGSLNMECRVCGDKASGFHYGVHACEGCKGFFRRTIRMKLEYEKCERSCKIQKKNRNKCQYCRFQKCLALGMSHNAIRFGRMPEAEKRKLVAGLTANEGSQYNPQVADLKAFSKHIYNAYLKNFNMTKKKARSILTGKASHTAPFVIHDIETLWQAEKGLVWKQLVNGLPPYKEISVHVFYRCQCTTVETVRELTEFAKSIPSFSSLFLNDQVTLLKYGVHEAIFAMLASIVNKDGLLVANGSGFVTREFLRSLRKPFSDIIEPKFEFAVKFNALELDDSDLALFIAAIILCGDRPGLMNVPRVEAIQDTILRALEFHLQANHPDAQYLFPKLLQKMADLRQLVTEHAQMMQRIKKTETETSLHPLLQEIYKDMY

[3] = molecular target: T3, Peroxisome proliferator-activated receptor alpha (Homo sapiens, UniProt Q07869); assay: Agonist activity at human PPARalpha transfected in African green monkey COS-7 cells co-transfected with pGL4.35 and pBIND reporter gene plasmid assessed as receptor transactivation incubated for 16 hrs by luciferase reporter gene assay
T3 sequence (Q07869 whole entry): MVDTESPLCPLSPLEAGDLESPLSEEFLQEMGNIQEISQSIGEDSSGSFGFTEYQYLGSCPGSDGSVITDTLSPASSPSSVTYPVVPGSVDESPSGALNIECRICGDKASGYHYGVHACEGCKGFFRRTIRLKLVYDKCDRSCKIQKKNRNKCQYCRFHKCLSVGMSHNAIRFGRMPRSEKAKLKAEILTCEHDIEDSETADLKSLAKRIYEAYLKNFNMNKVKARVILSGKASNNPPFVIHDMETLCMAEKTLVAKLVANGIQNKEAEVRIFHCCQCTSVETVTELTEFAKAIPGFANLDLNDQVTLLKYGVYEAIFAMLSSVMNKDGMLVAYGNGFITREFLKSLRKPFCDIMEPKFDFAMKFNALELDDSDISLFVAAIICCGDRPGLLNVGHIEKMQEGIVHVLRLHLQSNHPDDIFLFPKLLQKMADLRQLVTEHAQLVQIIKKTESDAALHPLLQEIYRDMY

Row | Compound | EC50 [1] [µM] | EC50 [2] [µM] | EC50 [3] [µM]
1 | Cc1c(CN2CCN(c3ccc(C(F)(F)F)cc3)CC2)ccc(OC(C)(C)C(=O)O)c1C | > 10 | – | –
2 | Cc1cc(CN2CCN(c3ccc(F)cn3)CC2)cc(C)c1OC(C)(C)C(=O)O | 7.2 | > 10 | –
3 | Cc1cc(CN2CCN(Cc3ccc(C(F)(F)F)cn3)CC2)cc(C)c1OC(C)(C)C(=O)O | 8.6 | 2 | –
4 | Cc1cc(CN2CCN(c3ncccc3C(F)(F)F)CC2)cc(C)c1OC(C)(C)C(=O)O | – | > 10 | –
5 | Cc1cc(CN2CCN(c3ccc(C(F)(F)F)nc3)CC2)cc(C)c1OC(C)(C)C(=O)O | > 10 | – | –
6 | Cc1cc(CN2CCN(Cc3ccc(C(F)(F)F)nc3)CC2)cc(C)c1OC(C)(C)C(=O)O | > 10 | – | –
7 | Cc1ccc(N2CCN(Cc3cc(C)c(OC(C)(C)C(=O)O)c(C)c3)CC2)nc1 | – | > 10 | –
8 | Cc1cc(CN2CCN(c3ccccn3)CC2)cc(C)c1OC(C)(C)C(=O)O | – | > 10 | –
9 | Cc1cc(OC(C)(C)C(=O)O)ccc1CN1CCN(c2ccc(C(F)(F)F)cc2)CC1 | – | – | > 10
10 | Cc1cc(CN2CCN(c3ccc(C(F)(F)F)cc3)CC2)cc(C)c1OC(C)(C)C(=O)O | > 10 | 0.8 | –
11 | Cc1cc(CN2CCN(c3cnc(C(F)(F)F)nc3)CC2)cc(C)c1OC(C)(C)C(=O)O | > 10 | 3.2 | –
12 | Cc1cc(CN2CCN(c3ccc(C(F)(F)F)cc3)CC2)ccc1OC(C)(C)C(=O)O | > 10 | – | –
13 | Cc1cc(CN2CCN(c3ncc(C(F)(F)F)cn3)CC2)cc(C)c1OC(C)(C)C(=O)O | – | 0.8 | –
14 | CC(C)(Oc1ccc(CN2CCN(c3ccc(C(F)(F)F)cc3)CC2)cc1)C(=O)O | > 10 | 4.4 | –
15 | CC(C)(Oc1ccc(CCNC(=O)c2ccc(Cl)cc2)cc1)C(=O)O [BEZAFIBRATE] | 13.2 | 49.7 | –
16 | O=C(O)CCCc1cc2cc(Cl)ccc2n1S(=O)(=O)c1ccc2ncsc2c1 [LANIFIBRANOR] | 0.6 | 2.9 | 3.2
